The target in the assay is T1, human TLR8 (Homo sapiens, UniProt Q9NR97).
T1 sequence (Q9NR97 27-1041): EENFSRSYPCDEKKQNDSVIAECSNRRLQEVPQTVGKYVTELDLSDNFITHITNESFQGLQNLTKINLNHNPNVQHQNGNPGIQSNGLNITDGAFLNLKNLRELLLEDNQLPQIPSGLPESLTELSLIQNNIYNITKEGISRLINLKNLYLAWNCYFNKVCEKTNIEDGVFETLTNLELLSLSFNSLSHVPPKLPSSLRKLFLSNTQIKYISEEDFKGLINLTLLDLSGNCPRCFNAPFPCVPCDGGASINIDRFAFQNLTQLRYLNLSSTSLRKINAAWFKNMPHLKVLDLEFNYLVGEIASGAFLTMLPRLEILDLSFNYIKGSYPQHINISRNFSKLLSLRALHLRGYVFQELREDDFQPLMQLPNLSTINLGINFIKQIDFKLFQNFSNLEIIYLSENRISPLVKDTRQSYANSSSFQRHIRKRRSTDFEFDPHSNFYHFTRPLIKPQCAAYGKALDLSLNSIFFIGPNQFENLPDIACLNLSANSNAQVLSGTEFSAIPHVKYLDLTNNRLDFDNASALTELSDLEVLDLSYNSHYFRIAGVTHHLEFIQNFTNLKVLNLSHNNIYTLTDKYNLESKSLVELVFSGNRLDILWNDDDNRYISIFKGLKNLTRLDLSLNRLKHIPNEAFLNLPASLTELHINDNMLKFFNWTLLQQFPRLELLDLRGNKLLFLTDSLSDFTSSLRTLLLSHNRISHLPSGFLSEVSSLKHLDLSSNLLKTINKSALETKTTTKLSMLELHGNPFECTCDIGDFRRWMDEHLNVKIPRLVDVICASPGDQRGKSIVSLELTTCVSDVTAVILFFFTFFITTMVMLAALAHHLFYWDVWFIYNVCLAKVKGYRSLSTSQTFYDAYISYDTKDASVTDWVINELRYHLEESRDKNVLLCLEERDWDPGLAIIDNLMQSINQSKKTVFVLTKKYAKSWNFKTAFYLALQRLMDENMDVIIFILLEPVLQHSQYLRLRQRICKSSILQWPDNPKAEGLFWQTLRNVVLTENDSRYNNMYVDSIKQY
Description: HEK293-Blue-hTLR-8 cells assay (SEAP reporter, R848 stimulation). The format is cell-based. Conditions: HEK293-Blue-hTLR8 cells, R848 ligand, 20 hrs incubation. The method in brief: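 Antagonism was measured in HEK293-Blue-hTLR8 cells with an NF-κB/AP-1-driven SEAP reporter. Cells were stimulated with R848 (10 μL of 60 uM stock) alongside compound (1% DMSO) for 20 hrs at 37° C. Supernatant SEAP was read with QUANTI-Blue after 2 hrs, absorbance at 620-655 nm.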
Broadly, the IC50 is the concentration needed to halve the response being measured. In turn, `N#Cc1ccc(N2CC(CN3CCNCC3)C3(CC3)C2)c2nccnc12` (centres unmarked) [Example 3, 8-[7-(piperazin-1-ylmethyl)-5-azaspiro[2.4]heptan-5-yl]quinoxaline-5-carbonitrile] showed an IC50 of 12 nM.
Regarding `N#Cc1ccc(N2CC(CN3CC4CCC(C3)C4N)C3(CC3)C2)c2nccnc12` (centres unmarked) [Example 4, 8-[7-[(8-Amino-3-azabicyclo[3.2.1]octan-3-yl)methyl]-5-azaspiro[2.4]heptan-5-yl]quinoxaline-5-carbonitrile], inhibition was half-maximal at 38 nM (IC50).
Turning to `CN(C)[C@@H]1CCN(C[C@H]2CN(c3ccc(C#N)c4nccnc34)C[C@@H]2C(F)(F)F)C1` [Example 83, 8-[(3S,4R)-3-[[(3R)-3-(dimethylamino)pyrrolidin-1-yl]methyl]-4-(trifluoromethyl)pyrrolidin-1-yl]quinoxaline-5-carbonitrile], the IC50 is 65 nM.
In the case of `CN1CCC2(CCN(C[C@H]3CN(c4ccc(C#N)c5nccnc45)C[C@@H]3C(F)(F)F)C2)C1` (stereo partly drawn) [Example 84, 8-[(3S,4R)-3-[(7-methyl-2,7-diazaspiro[4.4]nonan-2-yl)methyl]-4-(trifluoromethyl)pyrrolidin-1-yl]quinoxaline-5-carbonitrile] it was 57 nM; in that of `CC1(CN)CCN(C[C@H]2CN(c3ccc(C#N)c4nccnc34)C[C@@H]2C(F)(F)F)C1` (stereo partly drawn) [Example 85, 8-[(3S,4R)-3-[[3-(aminomethyl)-3-methyl-pyrrolidin-1-yl]methyl]-4-(trifluoromethyl)pyrrolidin-1-yl]quinoxaline-5-carbonitrile], 75 nM.

For the origin of these results see patent US20210253575A1, “PYRROLIDINE AMINE COMPOUNDS FOR THE TREATMENT OF AUTOIMMUNE DISEASE” (Hoffmann-La Roche Inc., priority 2018, published 2021).
